Source: patent US20260317319A1, “NOVEL ERGOLINES AND METHODS OF TREATING MOOD DISORDERS” (Gilgamesh Pharma Inc., priority 2023, published 2026)
Read-outs that look alike come from different tables or passages of the source.

Legend:
5-HT2B receptor = target: T1, 5-HT2B receptor (Homo sapiens, UniProt P41595); assay: cell-based; format: cell-based; conditions: Ca2+ flux; for Emax: HEK293, agonist, HEK293, max dose, read-out: 5-HT2B % Act @ Max Dose; for EC50: agonist, HEK293
T1 construct: expressed in transfected cells; host or cells: HEK293, stably transfected
T1 sequence (P41595 whole entry): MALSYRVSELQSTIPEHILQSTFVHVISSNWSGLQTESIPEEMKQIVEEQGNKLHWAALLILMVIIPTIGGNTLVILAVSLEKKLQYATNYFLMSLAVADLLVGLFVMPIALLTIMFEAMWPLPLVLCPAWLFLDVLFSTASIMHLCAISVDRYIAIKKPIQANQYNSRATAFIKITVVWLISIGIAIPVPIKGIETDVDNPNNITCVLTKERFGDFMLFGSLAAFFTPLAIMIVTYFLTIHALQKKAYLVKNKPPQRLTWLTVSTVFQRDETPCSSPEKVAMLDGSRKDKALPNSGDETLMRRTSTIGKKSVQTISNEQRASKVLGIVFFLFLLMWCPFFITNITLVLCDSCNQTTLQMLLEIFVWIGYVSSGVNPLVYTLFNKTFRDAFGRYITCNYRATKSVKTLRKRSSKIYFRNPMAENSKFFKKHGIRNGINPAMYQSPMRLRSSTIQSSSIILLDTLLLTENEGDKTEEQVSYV
Outline: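 FLIPR Tetra fluorescence read-out of calcium flux after compound addition. Receptor-expressing stable lines were used (HEK293 for 2A/2B; CHO with Gα15 for 1A), dye-loaded with Fluo-4 Direct and 2.5 mM final probenecid, 50 min at 37 °C.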

5-HT2C receptor = target: T2, 5-HT2C receptor (Homo sapiens, UniProt P28335); assay: cell-based; conditions: agonist, Ca2+ flux, Eurofins DiscoverX protocol; for Emax: max dose, read-out: 5-HT2C % Act @ Max Dose; for EC50: read-out: 5-HT2C EC50
T2 sequence (P28335 33-458): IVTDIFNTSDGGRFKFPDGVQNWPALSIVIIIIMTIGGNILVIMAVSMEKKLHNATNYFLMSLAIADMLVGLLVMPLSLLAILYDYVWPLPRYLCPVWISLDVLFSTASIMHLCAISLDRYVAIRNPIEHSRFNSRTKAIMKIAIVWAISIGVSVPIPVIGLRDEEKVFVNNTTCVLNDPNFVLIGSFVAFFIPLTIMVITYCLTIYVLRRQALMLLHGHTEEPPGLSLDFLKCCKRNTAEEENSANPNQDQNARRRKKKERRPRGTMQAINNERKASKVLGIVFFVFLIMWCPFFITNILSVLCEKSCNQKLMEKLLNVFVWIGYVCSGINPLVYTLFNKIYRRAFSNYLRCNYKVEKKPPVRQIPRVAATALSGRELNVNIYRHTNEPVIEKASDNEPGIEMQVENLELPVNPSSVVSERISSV

5-HT1A receptor = target: T3, 5-HT1A receptor (Homo sapiens, UniProt P08908); assay: cell-based; conditions: agonist, Ca2+ flux; for Emax: CHO, CHO cells with Gα15, max dose, read-out: 5-HT1A % Act @ Max Dose; for EC50: CHO cells with Gα15
T3 construct: expressed in transfected cells; host or cells: CHO cells, stably transfected
T3 sequence (P08908 1-422): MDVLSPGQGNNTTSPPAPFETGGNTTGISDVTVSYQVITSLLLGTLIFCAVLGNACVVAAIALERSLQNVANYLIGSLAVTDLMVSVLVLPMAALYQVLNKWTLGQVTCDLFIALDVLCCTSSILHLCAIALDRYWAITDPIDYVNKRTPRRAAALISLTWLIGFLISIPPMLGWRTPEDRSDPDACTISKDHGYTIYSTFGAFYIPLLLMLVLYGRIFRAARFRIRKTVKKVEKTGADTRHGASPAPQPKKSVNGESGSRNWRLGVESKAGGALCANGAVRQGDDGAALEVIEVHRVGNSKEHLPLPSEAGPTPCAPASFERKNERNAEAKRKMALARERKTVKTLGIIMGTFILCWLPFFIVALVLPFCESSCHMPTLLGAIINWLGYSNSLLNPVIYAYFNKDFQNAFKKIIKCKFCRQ
Outline: (§1)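 Using HEK293 lines for the 5-HT2 subtypes and Gα15-coupled CHO cells for 5-HT1A, compounds were tested as agonists. Fluorescent Ca2+ signal followed dye loading (Fluo-4 Direct, 2.5 mM final probenecid, 50 min, 37 °C).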

5-HT2A receptor [1] = target: T4, 5-HT2A receptor (Homo sapiens, UniProt P28223); assay: cell-based; format: cell-based; conditions: agonist, beta-arrestin recruitment, max dose; read-out: 5-HT2A Arrestin % Act @ Max Dose
T4 sequence (P28223 whole entry, the tested form may be a part): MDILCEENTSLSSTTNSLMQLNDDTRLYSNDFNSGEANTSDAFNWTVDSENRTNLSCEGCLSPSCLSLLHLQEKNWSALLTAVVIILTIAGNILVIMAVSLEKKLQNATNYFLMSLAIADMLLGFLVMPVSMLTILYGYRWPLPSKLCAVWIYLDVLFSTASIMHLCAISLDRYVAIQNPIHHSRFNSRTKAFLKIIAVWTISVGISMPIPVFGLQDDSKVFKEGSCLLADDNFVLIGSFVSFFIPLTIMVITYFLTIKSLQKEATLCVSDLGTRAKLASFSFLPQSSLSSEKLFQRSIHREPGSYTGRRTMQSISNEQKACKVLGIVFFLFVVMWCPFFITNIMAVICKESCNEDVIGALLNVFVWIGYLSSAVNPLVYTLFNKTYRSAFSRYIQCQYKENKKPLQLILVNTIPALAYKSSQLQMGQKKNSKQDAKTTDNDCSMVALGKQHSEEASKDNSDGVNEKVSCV
Method: Arrestin Functional Assay at 5-HT2A. Recruitment of beta-arrestin was determined using a PathHunter assay at Eurofins DiscoverX (Fremont, CA) according to their standard protocols. PathHunter GPCR beta-arrestin assays take advantage of DiscoverX's proprietary Enzyme Fragment Complementation technology. The GPCR is fused in frame with a small enzyme donor fragment ProLink™ (PK) and co-expressed in cells stably expressing a fusion protein of beta-arrestin and the larger, N-terminal deletion mutant of beta-galactosidase. Activation of the GPCR (5-HT2A receptor in this case) stimulates binding of beta-arrestin to the PK-tagged GPCR and forces complementation of the two enzyme fragments, resulting in the formation of an active beta-galactosidase enzyme. This interaction leads to an increase in enzyme activity that can be measured using chemiluminescent PathHunter Detection Reagents. Briefly, PathHunter cells expressing 5-HT2A receptors were seeded in a volume of 20 μL into 384-well plates and incubated at 37° C. for the appropriate time prior to testing. […] Plates were then imaged on a microplate reader and the agonist activity was calculated using the following formula: % Activity=100%×(mean RLU of test sample-mean RLU of vehicle control)/(mean MAX control ligand-mean RLU of vehicle control), where RLU=relative light units.

in vitro [2] = format: in vitro ADME, human; conditions: HLM 0.50 mg/mL, NADPH 1 mM, 1 μM compound, pH 7.4, 37° C., 60 min; for microsomal CLint / half-life: human, microsomes; for microsomal CLint: read-out: Intrinsic clearance (Clint); for half-life: read-out: half-life (t1/2)
in vitro [3] = format: in vitro ADME, mouse; conditions: MLM (male CD-1) 0.50 mg/mL, NADPH 1 mM, 1 μM compound, pH 7.4, 37° C., 60 min; for microsomal CLint / half-life: mouse, microsomes; for microsomal CLint: read-out: Intrinsic clearance (Clint); for half-life: read-out: half-life (t1/2)
From the text: MLM Stability Pooled MLM from male CD-1 mice (BIOIVT M00501) were used.

in vitro [4] = format: in vitro ADME, rat; conditions: RLM (male Sprague-Dawley) 0.50 mg/mL, NADPH 1 mM, 1 μM compound, pH 7.4, 37° C., 60 min; for microsomal CLint / half-life: rat, microsomes; for microsomal CLint: read-out: Intrinsic clearance (Clint); for half-life: read-out: half-life (t1/2)
From the text: RLM Stability Pooled RLM from male Sprague-Dawley rats (Xenotech R1000) were used.

5-HT2A receptor [5] = target: T4, 5-HT2A receptor; assay: cell-based; format: cell-based; set-up: expressed in transfected cells; host or cells: HEK293, stably transfected; conditions: Ca2+ flux; for Emax: HEK293, agonist, HEK293, max dose, read-out: 5-HT2A % Act @ Max Dose; for EC50: agonist, HEK293
Outline: as §1

5-HT2A receptor [6] = target: T4, 5-HT2A receptor; assay: biochemical; format: binding; set-up: expressed in transfected cells; host or cells: HEK293, stably transfected; conditions: [3H]ketanserin 1 nM; HEK293 stable cell line; 1 h, 25 °C
Outline: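 Values reflect [^3H]ketanserin binding competition. Assay conditions were adapted from the literature.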

Row | SMILES | Emax (5-HT2B receptor) | Emax (5-HT2C receptor) | Emax (5-HT1A receptor) | Emax (5-HT2A receptor [1]) | half-life (t1/2) (in vitro [2]) | half-life (t1/2) (in vitro [3]) | half-life (t1/2) (in vitro [4]) | Emax (5-HT2A receptor [5]) | EC50 (5-HT2B receptor) | EC50 (5-HT2C receptor) | EC50 (5-HT1A receptor) | microsomal CLint (in vitro [2]) | half-life (in vitro [2]) | microsomal CLint (in vitro [3]) | half-life (in vitro [3]) | microsomal CLint (in vitro [4]) | half-life (in vitro [4]) | Ki (5-HT2A receptor [6]) | EC50 (5-HT2A receptor [5])
1 | CCN(CC)C(=O)[C@H]1C=C2c3cccc4[nH]cc(c34)C[C@H]2N(CCCF)C1 [Compound 2a, (6aR,9S)—N,N-diethyl-7-(3-fluoropropyl)-4,6,6a,7,8,9-hexahydroindolo[4,3-fg]quinoline-9-carboxamide] | 40.1% | 119% | 96.8% | 83.3% | 17.018 min | 1.776 min | 9.673 min | 90.3% | – | – | – | – | – | – | – | – | – | – | –
2 | CCCN1C[C@@H](C(=O)N[C@H](C)CC)C=C2c3cccc4[nH]cc(c34)C[C@H]21 [Compound 3a, (6aR,9S)—N—((R)-sec-butyl)-7-propyl-4,6,6a,7,8,9-hexahydroindolo[4,3-fg]quinoline-9-carboxamide] | 52.8% | 109% | 108% | 113% | 2.2 min | 0.6 min | 1.4 min | 92% | – | – | – | – | – | – | – | – | – | – | –
3 | CC[C@@H](C)NC(=O)[C@H]1C=C2c3cccc4[nH]cc(c34)C[C@H]2N(CC)C1 [Compound 5a, (6aR,9S)—N—((R)-sec-butyl)-7-ethyl-4,6,6a,7,8,9-hexahydroindolo[4,3-fg]quinoline-9-carboxamide] | 43.7% | 99.4% | 112% | 62.4% | 5.5 min | 1.7 min | 3.1 min | 89.6% | – | – | – | – | – | – | – | – | – | – | –
4 | C=CCN1C[C@@H](C(=O)N[C@H](C)CC)C=C2c3cccc4[nH]cc(c34)C[C@H]21 [Compound 8a, (6aR,9S)-7-allyl-N—((R)-sec-butyl)-4,6,6a,7,8,9-hexahydroindolo[4,3-fg]quinoline-9-carboxamide] | 35.7% | 13.3% | 90.3% | 81.1% | 3.4 min | 0.8 min | 1.7 min | 87.5% | – | – | – | – | – | – | – | – | – | – | –
5 | CCN(CC)C(=O)[C@@H]1C=C2c3cccc4[nH]cc(c34)C[C@H]2N(Cc2cccc(F)c2)C1 [Compound 52, (6aR,9R)—N,N-diethyl-7-(3-fluorobenzyl)-4,6,6a,7,8,9-hexahydroindolo[4,3-fg]quinoline-9-carboxamide] | 4.22% | 14.5% | 93% | – | – | – | – | 81.7% | > 10 µM | > 10 µM | 7.99 µM | 77.9 µL/min/mg | 17.8 min | 338 µL/min/mg | 4.1 min | 302 µL/min/mg | 4.6 min | 5.39 nM | 469 nM
6 | CCN(CC)C(=O)[C@@H]1C=C2c3cccc4[nH]cc(c34)C[C@H]2N(Cc2ccc(F)c(F)c2)C1 [Compound 54, (6aR,9R)-7-(3,4-difluorobenzyl)-N,N-diethyl-4,6,6a,7,8,9-hexahydroindolo[4,3-fg]quinoline-9-carboxamide] | 0.91% | 8.36% | 51% | – | – | – | – | 59.2% | > 10 µM | > 10 µM | > 100 µM | 73.9 µL/min/mg | 18.7 min | 242 µL/min/mg | 5.7 min | 110 µL/min/mg | 12.6 min | 5.4 nM | 1870 nM
7 | CCN(CC)C(=O)[C@@H]1C=C2c3cccc4[nH]cc(c34)C[C@H]2N(Cc2ccc(C)cc2)C1 [Compound 97, (6aR,9R)—N,N-diethyl-7-(4-methylbenzyl)-4,6,6a,7,8,9-hexahydroindolo[4,3-fg]quinoline-9-carboxamide] | – | – | 84.5% | – | – | – | – | – | 0.0166 µM | 0.00406 µM | > 100 µM | 63.5 µL/min/mg | 21.8 min | 511 µL/min/mg | 2.7 min | 532 µL/min/mg | 2.6 min | 23.1 nM | 23.1 nM
